In patent publication US12227495B2, “Herbicidal compounds” (SYNGENTA CROP PROTECTION AG, priority 2018, dated 2025):

Key:
Assay type in all cases: in vivo
Conditions in all cases: evaluated after 13 days
[1] = test system: Amaranthus retoflexus (AMARE); assay: Post-emergence herbicide test, glasshouse, percentage damage
Summary of the method: (§1)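 Compounds are applied as aqueous sprays at 500 g/ha, unless otherwise stated, either one day after sowing or to 8-day-old plants. Injury is assessed after 13 days and expressed on a 1-5 scale, where 5 means 81-100% damage.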

Lolium perenne (LOLPE) [2] = assay: as above
Summary of the method: as §1

[3] = test system: Ipomoea hederacea (IPOHE); assay: as above
Summary of the method: as §1

Solanum nigrum (SOLNI) [4] = assay: as above
Summary of the method: as §1

Setaria faberi (SETFA) [5] = assay: as above
Summary of the method: as §1

[6] = test system: Echinochloa crus-galli (ECHCG); assay: as above
Summary of the method: as §1

[7] = test system: Amaranthus retoflexus (AMARE); assay: Pre-emergence herbicide test, glasshouse, percentage damage
Summary of the method: as §1

Lolium perenne (LOLPE) [8] = assay: as above
Summary of the method: as §1

[9] = test system: Ipomoea hederacea (IPOHE); assay: as above
Summary of the method: as §1

Solanum nigrum (SOLNI) [10] = assay: as above
Summary of the method: as §1

Setaria faberi (SETFA) [11] = assay: as above
Summary of the method: as §1

[12] = test system: Echinochloa crus-galli (ECHCG); assay: as above
Summary of the method: as §1

| Compound | percentage damage caused to the plant, AMARE ([1]; 1000 g/ha) | percentage damage caused to the plant, LOLPE (Lolium perenne (LOLPE) [2]; 1000 g/ha) | percentage damage caused to the plant, IPOHE ([3]; 1000 g/ha) | percentage damage caused to the plant, SOLNI (Solanum nigrum (SOLNI) [4]; 1000 g/ha) | percentage damage caused to the plant, SETFA (Setaria faberi (SETFA) [5]; 1000 g/ha) | percentage damage caused to the plant, ECHCG ([6]; 1000 g/ha) | Pre-emergence Test AMARE percentage damage (five point scale) ([7]; rate 1000 g/ha) | Pre-emergence Test LOLPE percentage damage (five point scale) (Lolium perenne (LOLPE) [8]; rate 1000 g/ha) | Pre-emergence Test IPOHE percentage damage (five point scale) ([9]; rate 1000 g/ha) | Pre-emergence Test SOLNI percentage damage (five point scale) (Solanum nigrum (SOLNI) [10]; rate 1000 g/ha) | Pre-emergence Test SETFA percentage damage (five point scale) (Setaria faberi (SETFA) [11]; rate 1000 g/ha) | Pre-emergence Test ECHCG percentage damage (five point scale) ([12]; rate 1000 g/ha) | further results |
| --- | --- | --- | --- | --- | --- | --- | --- | --- | --- | --- | --- | --- | --- |
| Fc1cc(Cl)cnc1Oc1cccc(Cl)c1-c1cc(C(F)F)no1 [Compound A42] | – | – | – | – | – | – | – | – | – | – | – | – | percentage damage caused to the plant, AMARE ([1]; 250 g/ha): 5 (5=81-100%); percentage damage caused to the plant, LOLPE (Lolium perenne (LOLPE) [2]; 250 g/ha): 5 (5=81-100%); percentage damage caused to the plant, IPOHE ([3]; 250 g/ha): 4 (4=61-80%); percentage damage caused to the plant, SOLNI (Solanum nigrum (SOLNI) [4]; 250 g/ha): 5 (5=81-100%); percentage damage caused to the plant, SETFA (Setaria faberi (SETFA) [5]; 250 g/ha): 5 (5=81-100%); percentage damage caused to the plant, ECHCG ([6]; 250 g/ha): 4 (4=61-80%); Pre-emergence Test AMARE percentage damage (five point scale) ([7]; rate 250 g/ha): 5 (5=81-100%); Pre-emergence Test LOLPE percentage damage (five point scale) (Lolium perenne (LOLPE) [8]; rate 250 g/ha): 5 (5=81-100%); Pre-emergence Test IPOHE percentage damage (five point scale) ([9]; rate 250 g/ha): 3 (3=41-60%); Pre-emergence Test SOLNI percentage damage (five point scale) (Solanum nigrum (SOLNI) [10]; rate 250 g/ha): 4 (4=61-80%); Pre-emergence Test SETFA percentage damage (five point scale) (Setaria faberi (SETFA) [11]; rate 250 g/ha): 5 (5=81-100%); Pre-emergence Test ECHCG percentage damage (five point scale) ([12]; rate 250 g/ha): 5 (5=81-100%) |
| Fc1cc(Cl)cnc1Oc1ccccc1-c1cc(C(F)F)no1 [Compound A43] | 5 (5=81-100%) | 5 (5=81-100%) | 4 (4=61-80%) | 5 (5=81-100%) | 5 (5=81-100%) | 4 (4=61-80%) | 5 (5=81-100%) | 5 (5=81-100%) | 4 (4=61-80%) | 5 (5=81-100%) | 5 (5=81-100%) | 5 (5=81-100%) | – |
| Fc1cc(Cl)cnc1Oc1cccc(Br)c1-c1cc(C(F)F)no1 [Compound A44] | 5 (5=81-100%) | 5 (5=81-100%) | 5 (5=81-100%) | 5 (5=81-100%) | 5 (5=81-100%) | 5 (5=81-100%) | 5 (5=81-100%) | 5 (5=81-100%) | 5 (5=81-100%) | 5 (5=81-100%) | 5 (5=81-100%) | 5 (5=81-100%) | – |
| O=[N+]([O-])c1cccc(Oc2ncc(Cl)cc2F)c1-n1cc(C(F)(F)F)cn1 [Compound A46] | 5 (5=81-100%) | 3 (3=41-60%) | 2 (2=21-40%) | 5 (5=81-100%) | 4 (4=61-80%) | 3 (3=41-60%) | 4 (4=61-80%) | 1 (1=0-20%) | 1 (1=0-20%) | 1 (1=0-20%) | 5 (5=81-100%) | 4 (4=61-80%) | – |
| Fc1cccc(Oc2cccc(C(F)(F)F)n2)c1-c1cc(C(F)F)no1 [Compound A47] | 3 (3=41-60%) | 1 (1=0-20%) | 1 (1=0-20%) | 3 (3=41-60%) | 1 (1=0-20%) | 1 (1=0-20%) | 1 (1=0-20%) | 1 (1=0-20%) | 1 (1=0-20%) | 1 (1=0-20%) | 1 (1=0-20%) | 1 (1=0-20%) | – |
| Fc1cccc(Oc2cccc(OC(F)F)n2)c1-c1cc(C(F)F)no1 [Compound A48] | 5 (5=81-100%) | 1 (1=0-20%) | 2 (2=21-40%) | 5 (5=81-100%) | 2 (2=21-40%) | 1 (1=0-20%) | 1 (1=0-20%) | 1 (1=0-20%) | 1 (1=0-20%) | 1 (1=0-20%) | 1 (1=0-20%) | 1 (1=0-20%) | – |
| N#Cc1cccnc1Oc1cccc(F)c1-c1cc(C(F)F)no1 [Compound A49] | 5 (5=81-100%) | 1 (1=0-20%) | 3 (3=41-60%) | 5 (5=81-100%) | 2 (2=21-40%) | 3 (3=41-60%) | 5 (5=81-100%) | 1 (1=0-20%) | 1 (1=0-20%) | 5 (5=81-100%) | 5 (5=81-100%) | 3 (3=41-60%) | – |
| Fc1ccc(Oc2cccc(F)c2-c2cc(C(F)F)no2)nc1F [Compound A50] | 3 (3=41-60%) | 1 (1=0-20%) | 1 (1=0-20%) | 5 (5=81-100%) | 3 (3=41-60%) | 2 (2=21-40%) | 4 (4=61-80%) | 1 (1=0-20%) | 1 (1=0-20%) | 4 (4=61-80%) | 4 (4=61-80%) | 1 (1=0-20%) | – |
| Fc1cccc(Oc2ncc(C(F)(F)F)cc2Cl)c1-c1cc(C(F)F)no1 [Compound A51] | 4 (4=61-80%) | 1 (1=0-20%) | 1 (1=0-20%) | 5 (5=81-100%) | 1 (1=0-20%) | 1 (1=0-20%) | 1 (1=0-20%) | 1 (1=0-20%) | 1 (1=0-20%) | 1 (1=0-20%) | 1 (1=0-20%) | 1 (1=0-20%) | – |
| Cc1cccc(Oc2ncc(Cl)cc2F)c1-n1cc(C(F)(F)F)cn1 [Compound A54] | 3 (3=41-60%) | 4 (4=61-80%) | 1 (1=0-20%) | 5 (5=81-100%) | 5 (5=81-100%) | 3 (3=41-60%) | 5 (5=81-100%) | 5 (5=81-100%) | 1 (1=0-20%) | 5 (5=81-100%) | 5 (5=81-100%) | 3 (3=41-60%) | – |
